Measurements taken from the supplement of paper PMC10307832.

Key:
Assay in all cases: relative viability (nuclei count vs DMSO), 5 days (fraction); higher = more cells survive
[1] = compound: CC1=CC=C(C=C1)C(=O)CN2C3=C(CCCC3)SC2=N [Pifithrin_alpha] + Cc1cc(Nc2cc(N3CCN(C)CC3)nc(Sc3ccc(NC(=O)C4CC4)cc3)n2)n[nH]1 [Tozasertib] (partner 0.1 µM)
Method in brief: (§1)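 Relative viability divides the nuclei count in treated wells by that in vehicle wells. Lung cancer cell lines were seeded in 1536-well plates, dosed by pin tool the next day, and fixed and stained after 5 days in one step with final 0.05% Triton X-100, 1% formaldehyde and 1 ug/ml Hoechst. Dosing was a single drug or a fixed anchor-drug dose plus five library-drug doses (not always all listed) in √10 steps, and values are medians of duplicate plates imaged at 4×.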

[2] = compound: CNC(=O)c1ccccc1Sc1ccc2c(/C=C/c3ccccn3)n[nH]c2c1 [Axitinib] + CC(=O)Nc1cccc(-n2c(=O)n(C3CC3)c(=O)c3c(Nc4ccc(I)cc4F)n(C)c(=O)c(C)c32)c1 [Trametinib] (partner 0.02 µM)
Method in brief: as §1

[3] = compound: CNC(=O)c1ccccc1Sc1ccc2c(/C=C/c3ccccn3)n[nH]c2c1 [Axitinib] + Nc1nc2[nH]cc(CCc3ccc(C(=O)N[C@@H](CCC(=O)O)C(=O)O)cc3)c2c(=O)[nH]1 [Pemetrexed] (partner 0.2 µM)
Method in brief: as §1

[4] = compound: Nc1nc(Nc2ccc3c(c2)CC[C@@H](N2CCCC2)CC3)nn1-c1cc2c(nn1)-c1ccccc1CCC2 [Bemcentinib] + Cc1nc(Nc2ncc(C(=O)Nc3c(C)cccc3Cl)s2)cc(N2CCN(CCO)CC2)n1 [Dasatinib] (partner 0.075 µM)
Method in brief: as §1

| Cell Line | relative viability ([1]; first compound 1 µM) | relative viability ([1]; first compound 3.162 µM) | relative viability ([1]; first compound 10 µM) | relative viability ([1]; first compound 31.62 µM) | relative viability ([1]; first compound 100 µM) | relative viability ([2]; first compound 0.005 µM) | relative viability ([2]; first compound 0.01581 µM) | relative viability ([2]; first compound 0.05 µM) | relative viability ([2]; first compound 0.1581 µM) | relative viability ([2]; first compound 0.5 µM) | relative viability ([3]; first compound 0.005 µM) | relative viability ([3]; first compound 0.01581 µM) | relative viability ([3]; first compound 0.05 µM) | relative viability ([3]; first compound 0.1581 µM) | relative viability ([3]; first compound 0.5 µM) | relative viability ([4]; first compound 0.04 µM) | relative viability ([4]; first compound 0.1265 µM) | relative viability ([4]; first compound 0.4 µM) | relative viability ([4]; first compound 1.265 µM) | relative viability ([4]; first compound 4 µM) |
| --- | --- | --- | --- | --- | --- | --- | --- | --- | --- | --- | --- | --- | --- | --- | --- | --- | --- | --- | --- | --- |
| NCI-H460 | 0.397 | 0.485 | 0.0522 | 0.0525 | 0.126 | 0.165 | 0.177 | 0.188 | 0.297 | 0.253 | 0.0553 | 0.0645 | 0.0676 | 0.0593 | 0.0611 | 0.452 | 0.534 | 0.562 | 0.535 | 0.551 |
| NCI-H520 | 0.446 | 0.438 | 0.364 |  | 0.421 | 0.704 | 0.542 | 0.733 | 0.541 | 0.686 | 0.68 | 0.698 | 0.74 | 0.681 | 0.716 | 0.197 | 0.194 | 0.257 | 0.206 | 0.23 |
| NCI-H522 | 0.585 | 0.55 | 0.592 | 0.522 | 0.593 | 0.87 | 0.752 | 0.853 | 0.633 | 0.81 | 1.22 | 1.14 | 1.07 | 1.07 | 0.944 | 0.768 | 0.975 | 0.886 | 0.844 | 0.829 |
| NCI-H596 | 0.79 | 0.871 | 0.977 | 0.705 | 0.915 | 0.881 | 0.625 | 0.835 | 0.8 | 0.895 | 0.517 | 0.483 | 0.676 | 0.533 | 0.433 | 0.454 | 0.604 | 0.575 | 0.593 | 0.627 |
| NCI-H647 | 0.339 | 0.382 | 0.288 | 0.188 | 0.145 | 0.587 | 0.484 | 0.49 | 0.407 | 0.506 | 0.21 | 0.149 | 0.2 | 0.184 | 0.209 | 0.169 | 0.213 | 0.211 | 0.186 | 0.136 |
| NCI-H661 | 0.359 | 0.354 | 0.358 | 0.355 | 0.346 | 0.594 | 0.5 | 0.578 | 0.556 | 0.583 | 0.885 | 0.916 | 0.902 | 0.942 | 0.956 | 0.77 | 0.877 | 0.924 | 0.832 | 0.913 |
| NCI-H838 | 0.265 | 0.24 | 0.237 | 0.222 | 0.208 | 0.565 | 0.486 | 0.584 | 0.52 | 0.572 | 0.243 | 0.25 | 0.247 | 0.237 | 0.25 | 0.221 | 0.305 | 0.309 | 0.254 | 0.294 |
| NCI-H1355 | 0.471 | 0.389 | 0.328 | 0.302 | 0.294 | 0.409 | 0.423 | 0.397 | 0.417 | 0.493 | 1.01 | 1.03 | 1.09 | 1.03 | 1.01 | 0.723 | 0.778 | 0.829 | 0.778 | 0.841 |
| NCI-H1395 | 0.642 | 0.755 | 0.657 | 0.627 | 0.688 | 1 | 0.789 | 0.941 | 0.911 | 1.02 | 0.962 | 0.761 | 0.832 | 0.683 | 0.736 | 0.393 | 0.392 | 0.439 | 0.364 | 0.396 |
| NCI-H1437 | 0.502 | 0.478 | 0.403 | 0.364 | 0.409 | 0.634 | 0.488 | 0.557 | 0.554 | 0.519 | 0.321 | 0.325 | 0.324 | 0.336 | 0.324 | 0.365 | 0.421 | 0.416 | 0.438 | 0.38 |
| NCI-H1650 |  | 0.346 | 0.22 | 0.261 | 0.31 | 0.613 | 0.469 | 0.682 | 0.648 | 0.749 | 0.415 | 0.352 | 0.361 | 0.436 | 0.408 | 0.344 | 0.382 | 0.347 | 0.346 | 0.321 |
| NCI-H1651 | 0.678 | 0.592 | 0.403 | 0.33 | 0.384 | 0.9 | 0.84 | 0.744 | 0.797 | 0.826 | 0.567 | 0.586 | 0.587 | 0.618 | 0.657 | 0.393 | 0.381 | 0.484 | 0.41 | 0.498 |
| NCI-H1666 | 0.606 | 0.596 | 0.474 | 0.507 | 0.515 | 0.904 | 0.868 | 0.863 | 0.847 | 0.873 | 0.865 | 0.972 | 0.899 | 0.958 | 0.873 | 0.755 | 0.781 | 0.806 | 0.773 | 0.781 |
| NCI-H1734 | 0.28 | 0.259 | 0.238 | 0.262 | 0.245 | 0.676 | 0.549 | 0.608 | 0.686 | 0.669 | 0.413 | 0.432 | 0.412 | 0.435 | 0.429 | 0.46 | 0.48 | 0.512 | 0.41 | 0.448 |
| NCI-H1755 | 0.67 | 0.449 | 0.492 | 0.424 | 0.54 | 0.806 | 0.764 | 0.786 | 0.822 | 0.789 | 0.438 | 0.448 | 0.403 | 0.509 | 0.403 | 0.379 | 0.511 | 0.397 | 0.438 | 0.41 |
| NCI-H1793 |  | 0.272 | 0.277 | 0.276 | 0.218 | 0.382 | 0.374 | 0.469 | 0.408 | 0.447 | 1.04 | 0.568 | 1.01 | 0.821 | 0.791 | 0.305 | 0.412 | 0.342 |  | 0.405 |
| NCI-H1915 | 0.454 | 0.465 |  |  | 0.399 | 0.34 | 0.299 | 0.312 | 0.298 | 0.33 | 0.497 | 0.494 | 0.501 | 0.522 | 0.536 | 0.304 | 0.302 | 0.307 | 0.332 | 0.331 |
| NCI-H1944 | 0.236 | 0.225 | 0.23 | 0.191 | 0.19 | 0.562 | 0.388 | 0.451 | 0.39 | 0.434 | 0.6 | 0.583 | 0.707 | 0.657 | 0.652 | 0.206 | 0.202 | 0.214 | 0.204 | 0.2 |
| NCI-H1975 | 0.592 | 0.431 | 0.181 | 0.141 | 0.203 | 0.44 | 0.361 | 0.325 | 0.348 | 0.328 | 0.294 | 0.293 | 0.272 | 0.269 | 0.279 | 0.344 | 0.424 | 0.432 | 0.386 | 0.354 |
| NCI-H1993 | 0.586 | 0.636 | 0.573 | 0.529 | 0.559 | 0.433 | 0.373 | 0.535 | 0.503 | 0.506 | 0.606 | 0.601 | 0.604 | 0.628 | 0.541 | 0.571 | 0.563 | 0.625 | 0.552 | 0.577 |
| NCI-H2009 | 0.822 | 0.755 | 0.693 | 0.413 | 0.495 | 0.279 | 0.252 | 0.304 | 0.245 | 0.254 | 0.997 | 1.06 | 1 | 1.1 | 1.05 | 0.24 | 0.303 | 0.276 | 0.272 | 0.247 |
| NCI-H2023 | 0.247 | 0.177 | 0.209 |  | 0.167 | 0.634 | 0.483 | 0.489 | 0.439 | 0.57 | 0.237 | 0.232 | 0.177 | 0.252 | 0.291 | 0.56 | 0.727 | 0.606 | 0.677 | 0.64 |
| NCI-H2085 | 0.828 | 0.467 | 0.427 | 0.478 | 0.489 | 0.561 | 0.496 | 0.56 | 0.546 | 0.548 | 0.903 | 0.876 | 0.905 | 0.806 | 0.808 | 0.224 | 0.195 | 0.258 | 0.256 | 0.294 |
| NCI-H2087 | 0.245 | 0.422 | 0.206 |  | 0.152 | 0.206 | 0.182 | 0.196 | 0.21 | 0.242 | 0.766 | 0.593 | 0.597 | 0.7 | 0.728 | 0.797 | 1.02 | 0.949 | 0.901 | 0.929 |
| NCI-H2126 | 0.568 | 0.772 | 0.602 | 0.596 | 0.432 | 0.536 | 0.612 | 0.578 | 0.603 | 0.545 | 0.679 | 0.708 | 0.689 | 0.75 | 0.737 | 0.559 | 0.67 | 0.646 | 0.71 | 0.699 |
| NCI-H2170 | 0.624 | 0.704 | 0.602 | 0.541 | 0.462 | 0.925 | 0.926 | 0.875 | 0.917 | 1.08 | 0.281 | 0.252 | 0.261 | 0.27 | 0.27 | 0.485 | 0.664 | 0.603 | 0.477 | 0.589 |
| NCI-H2228 | 0.247 | 0.147 | 0.209 | 0.154 | 0.135 | 0.683 | 0.515 | 0.561 | 0.478 | 0.509 | 0.335 | 0.306 | 0.307 | 0.374 | 0.341 | 0.14 | 0.566 | 0.532 | 0.526 | 0.538 |
